Results taken from patent publication US20260262643A1, “HERBICIDAL BENZOXAZINES” (FMC CORPORATION, priority 2022, published 2026).

Tests used:
ducksalad = test: Test D flooded paddy test; assay type: in vivo, Heteranthera limosa; conditions: 250 g ai/ha, applied to paddy water, visual rating after 13 to 14 days, scale 0 to 100 (0 no effect, 100 complete control)
Summary of the method: (§1)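 Rating scale 0–100 (0 no effect, 100 complete control), visual, versus controls. Readout at 13–14 days after in-water application to 2-leaf plants in pots flooded 3 cm deep.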

galium = test: Test C postemergence; assay type: in vivo, Galium aparine; conditions: 10 days, 0 to 100 scale (0 no effect, 100 complete control)
Summary of the method: (§2)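 Pre: seeds in loam/sand, directed soil spray. Post: 1–2 leaf plants, 2–10 cm. Cmpd in non-phytotoxic solvent + surfactant. Greenhouse 10 d; visual rating vs untreated, 0 = none, 100 = complete control.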

blackgrass [1] = test: Test C postemergence; assay type: in vivo, Alopecurus myosuroides; conditions: 10 days, 0 to 100 scale (0 no effect, 100 complete control)
Summary of the method: as §2

corn [2] = test: Test C preemergence; assay type: in vivo, Zea mays
Summary of the method: as §2

blackgrass [3] = test: Test C preemergence; assay type: in vivo, Alopecurus myosuroides
Summary of the method: as §2

wheat [4] = test: Test C preemergence; assay type: in vivo, Triticum aestivum
Summary of the method: as §2

ryegrass, Italian [5] = test: Test C preemergence; assay type: in vivo, Lolium multiflorum
Summary of the method: as §2

soybean [6] = test: Test C preemergence; assay type: in vivo, Glycine max
Summary of the method: as §2

oat, wild [7] = test: Test C postemergence; assay type: in vivo, Avena fatua; conditions: 10 days, 0 to 100 scale (0 no effect, 100 complete control)
Summary of the method: as §2

oat, wild [8] = test: Test C preemergence; assay type: in vivo, Avena fatua
Summary of the method: as §2

kochia [9] = test: Test C postemergence; assay type: in vivo, Bassia scoparia; conditions: 10 days, 0 to 100 scale (0 no effect, 100 complete control)
Summary of the method: as §2

kochia [10] = test: Test C preemergence; assay type: in vivo, Bassia scoparia
Summary of the method: as §2

barnyardgrass [11] = test: Test C postemergence; assay type: in vivo, Echinochloa crusgalli; conditions: 10 days, 0 to 100 scale (0 no effect, 100 complete control)
Summary of the method: as §2

pigweed, palmer [12] = test: Test C preemergence; assay type: in vivo, Amaranthus palmeri
Summary of the method: as §2

rice = test: Test D flooded paddy test; assay type: in vivo, Oryza sativa; conditions: 250 g ai/ha, applied to paddy water, visual rating after 13 to 14 days, scale 0 to 100 (0 no effect, 100 complete control)
Summary of the method: as §1

soybean [13] = test: Test C postemergence; assay type: in vivo, Glycine max; conditions: 10 days, 0 to 100 scale (0 no effect, 100 complete control)
Summary of the method: as §2

sedge, umbrella = test: Test D flooded paddy test; assay type: in vivo, Cyperus difformis; conditions: 250 g ai/ha, applied to paddy water, visual rating after 13 to 14 days, scale 0 to 100 (0 no effect, 100 complete control)
Summary of the method: as §1

green foxtail [14] = test: Test C preemergence; assay type: in vivo, Setaria viridis
Summary of the method: as §2

green foxtail [15] = test: Test C postemergence; assay type: in vivo, Setaria viridis; conditions: 10 days, 0 to 100 scale (0 no effect, 100 complete control)
Summary of the method: as §2

wheat [16] = test: Test C postemergence; assay type: in vivo, Triticum aestivum; conditions: 10 days, 0 to 100 scale (0 no effect, 100 complete control)
Summary of the method: as §2

corn [17] = test: Test C postemergence; assay type: in vivo, Zea mays; conditions: 10 days, 0 to 100 scale (0 no effect, 100 complete control)
Summary of the method: as §2

horseweed = test: Test C postemergence; assay type: in vivo, Erigeron canadensis; conditions: 10 days, 0 to 100 scale (0 no effect, 100 complete control)
Summary of the method: as §2

ragweed [18] = test: Test C postemergence; assay type: in vivo, Ambrosia artemisiifolia; conditions: 10 days, 0 to 100 scale (0 no effect, 100 complete control)
Summary of the method: as §2

ragweed [19] = test: Test C preemergence; assay type: in vivo, Ambrosia artemisiifolia
Summary of the method: as §2

barnyardgrass [20] = test: Test C preemergence; assay type: in vivo, Echinochloa crusgalli
Summary of the method: as §2

barnyardgrass [21] = test: Test D flooded paddy test; assay type: in vivo, Echinochloa crus-galli; conditions: 250 g ai/ha, applied to paddy water, visual rating after 13 to 14 days, scale 0 to 100 (0 no effect, 100 complete control)
Summary of the method: as §1

ryegrass, Italian [22] = test: Test C postemergence; assay type: in vivo, Lolium multiflorum; conditions: 10 days, 0 to 100 scale (0 no effect, 100 complete control)
Summary of the method: as §2

pigweed, palmer [23] = test: Test C postemergence; assay type: in vivo, Amaranthus palmeri; conditions: 10 days, 0 to 100 scale (0 no effect, 100 complete control)
Summary of the method: as §2

[24] = 500 g ai/ha, preemergence, 0 to 100 scale (0 no effect, 100 complete control)
[25] = Preemergence, 125 g ai/ha, 0 to 100 scale, 0 no effect, 100 complete control

For `COCc1ncn(-c2ccc(C)c(C(=O)N3C[C@H](C)Oc4c(Cl)cccc43)c2)n1` [Compound 357], the “Plant response rating, Ducksalad (Flood)” value (ducksalad) was 45, the “Plant response rating, Galium” value (galium; 500 g ai/ha, postemergence) was 100 and the “Plant response rating, Galium” value (galium; Postemergence, 125 g ai/ha) was 100. The “Plant response rating, Blackgrass” value (blackgrass [1]; 500 g ai/ha, postemergence) was 100, the “Plant response rating, Blackgrass” value (blackgrass [1]; Postemergence, 125 g ai/ha) was 90 and the “Corn plant response rating” value (corn [2]; [24]) was 20. For the same molecule, the “Plant response rating, Corn” value (corn [2]; [25]) was 10, the “Blackgrass plant response rating” value (blackgrass [3]; [24]) was 100 and the “Plant response rating, Blackgrass” value (blackgrass [3]; [25]) was 80. The “Wheat plant response rating” value (wheat [4]; [24]) was 70, the “Plant response rating, Wheat” value (wheat [4]; [25]) was 0 and the “Ryegrass, Italian plant response rating” value (ryegrass, Italian [5]; [24]) was 100. For the same molecule, the “Plant response rating, Ryegrass, Italian” value (ryegrass, Italian [5]; [25]) was 100, the “Soybean plant response rating” value (soybean [6]; [24]) was 100 and the “Plant response rating, Soybean” value (soybean [6]; [25]) was 100. The “Plant response rating, Oat, Wild” value (oat, wild [7]; 500 g ai/ha, postemergence) was 90, the “Plant response rating, Oat, Wild” value (oat, wild [7]; Postemergence, 125 g ai/ha) was 30 and the “Oat, Wild plant response rating” value (oat, wild [8]; [24]) was 90. For the same molecule, the “Plant response rating, Oat, Wild” value (oat, wild [8]; [25]) was 60, the “Plant response rating, Kochia” value (kochia [9]; 500 g ai/ha, postemergence) was 70 and the “Plant response rating, Kochia” value (kochia [9]; Postemergence, 125 g ai/ha) was 50. The “Kochia plant response rating” value (kochia [10]; [24]) was 90, the “Plant response rating, Kochia” value (kochia [10]; [25]) was 50 and the “Plant response rating, Barnyardgrass” value (barnyardgrass [11]; 500 g ai/ha, postemergence) was 100. The “Plant response rating, Barnyardgrass” value (barnyardgrass [11]; Postemergence, 125 g ai/ha) was 50, the “Pigweed, Palmer plant response rating” value (pigweed, palmer [12]; [24]) was 100 and the “Plant response rating, Pigweed, Palmer” value (pigweed, palmer [12]; [25]) was 90. The “Plant response rating, Rice (Flood)” value (rice) was 0, the “Plant response rating, Soybean” value (soybean [13]; 500 g ai/ha, postemergence) was 100 and the “Plant response rating, Soybean” value (soybean [13]; Postemergence, 125 g ai/ha) was 100. The “Plant response rating, Sedge, Umbrella (Flood)” value (sedge, umbrella) was 90, the “Foxtail, Green plant response rating” value (green foxtail [14]; [24]) was 100 and the “Plant response rating, Foxtail, Green” value (green foxtail [14]; [25]) was 100. For the same molecule, the “Plant response rating, Foxtail, Green” value (green foxtail [15]; 500 g ai/ha, postemergence) was 90, the “Plant response rating, Foxtail, Green” value (green foxtail [15]; Postemergence, 125 g ai/ha) was 30 and the “Plant response rating, Wheat” value (wheat [16]; 500 g ai/ha, postemergence) was 80. The “Plant response rating, Wheat” value (wheat [16]; Postemergence, 125 g ai/ha) was 20, the “Plant response rating, Corn” value (corn [17]; 500 g ai/ha, postemergence) was 80 and the “Plant response rating, Corn” value (corn [17]; Postemergence, 125 g ai/ha) was 40. For the same molecule, the “Plant response rating, Horseweed” value (horseweed; 500 g ai/ha, postemergence) was 80, the “Plant response rating, Horseweed” value (horseweed; Postemergence, 125 g ai/ha) was 60 and the “Plant response rating, Ragweed” value (ragweed [18]; 500 g ai/ha, postemergence) was 60. The “Plant response rating, Ragweed” value (ragweed [18]; Postemergence, 125 g ai/ha) was 20, the “Ragweed plant response rating” value (ragweed [19]; [24]) was 60 and the “Plant response rating, Ragweed” value (ragweed [19]; [25]) was 10. The “Barnyardgrass plant response rating” value (barnyardgrass [20]; [24]) was 100, the “Plant response rating, Barnyardgrass” value (barnyardgrass [20]; [25]) was 80 and the “Plant response rating, Barnyardgrass (Flood)” value (barnyardgrass [21]) was 10. For the same molecule, the “Plant response rating, Ryegrass, Italian” value (ryegrass, Italian [22]; 500 g ai/ha, postemergence) was 100, the “Plant response rating, Ryegrass, Italian” value (ryegrass, Italian [22]; Postemergence, 125 g ai/ha) was 50 and the “Plant response rating, Pigweed, Palmer” value (pigweed, palmer [23]; 500 g ai/ha, postemergence) was 100. For the same molecule, the “Plant response rating, Pigweed, Palmer” value (pigweed, palmer [23]; Postemergence, 125 g ai/ha) was 50.
